In assay [1] the test system is A2780 ovarian cancer cells. As to the kind of experiment: Cellular proliferation, Cell Titer Glo (Biological Method 4). Conditions: Homo sapiens, ovarian cancer cell line A2780. The class given is cell-based. On the procedure: In addition, many of the compounds of Table 1 were tested to determine their inhibitory activity in a cellular proliferation assay according to Biological Method 4.
The ability of the compounds of the invention to inhibit cellular proliferation were determined by using Cell Titer Glo, a commercially available assay from Promega Corporation. A2780 ovarian cancer cells were seeded in TC treated 96-well plates at a density of 1,000 per well in DMEM, 10% FBS, 1% Sodium Pyruvate, and 1% Penicillin Streptomycin for a minimum of 2 hrs prior to addition of compound. For each concentration of test compound, 2 μl (500×) aliquots of compound or 100% DMSO diluted in 500 μl of culture medium for 2× concentration then diluted 1× on the Cells. Cells were incubated for 72 hrs at 37° C., 5% CO2. After the 72 hour incubation, Cell Titer Glo reagent is added to determine number of viable cells remaining after exposure to the compound, and the EC50 value was calculated. The assay was performed according to the manufacturer's instruction (Promega Corporation, Madison, Wis. USA). Each experimental condition was performed in duplicate.
A general note: ATP-based viability assays read luminescence as a measure of living cells.

The next assay relates to pSer473 Akt. Kind of assay: pSer473 Akt assay to monitor PI3K pathway in A2780 cells (Biological Method 2). The class given is cell-based. Conditions: Homo sapiens, inhibition of Akt phosphorylation. The protocol: In this method, an assay for measuring the PI3K-mediated pSer473-Akt status after treatment with representative inhibitor compounds of the invention is described.
A2780 cells were cultured in DMEM supplemented with 10% FBS. L-glutamine, sodium pyruvate, and antibiotics. Cells were plated in the same medium at a density of 15,000 cells per well into 96 well tissue culture plates, with outside wells vacant, and allowed to adhere overnight.
Test compounds supplied in DMSO were diluted further into DMSO at 500 times the desired final concentrations before dilution into culture media to 2 times the final concentrations. Equal volumes of 2× compounds were added to the cells in 96 well plates and incubated at 37° C. for one hour. The media and compounds were then removed, the plates chilled and cells lysed in a lysis buffer (150 mM NaCl, 20 mM Tris pH 7.5, 1 mM EDTA, 1 mM EGTA, 1% Triton X-100) supplemented with phosphatase and protease inhibitors. After thorough mixing, lysates were transferred to both pSer473Akt and total Akt assay plates from Meso Scale Discovery (MSD), and incubated overnight with shaking at 4° C.
The assays were read on a SECTOR Imager 6000 instrument (Meso Scale Discovery). Ratios of the signal from pSer473Akt and total Akt assays were used to correct for any variability and the percent inhibition of pSer473Akt from the total signal seen in cells treated with compound versus DMSO alone was calculated and used to determine EC50 values for each compound.

In the next assay the target is PI3 kinase alpha (Homo sapiens, UniProt P42336). As to the kind of experiment: PI3K ATP depletion assay (Biological Method 1, Assay 3). The class given is biochemical. The protocol: Assay 3: ATP Depletion Assay
Compounds to be tested are dissolved in DMSO and directly distributed into a black 384-well plate at 1.25 μL per well. To start the reaction, 25 μL of 10 nM PI3 kinase and 5 μg/mL 1-alpha-phosphatidylinositol (PI) are added into each well followed by 25 μL of 2 μM ATP. The reaction is performed until approx 50% of the ATP is depleted, and then stopped by the addition of 25 μL of KinaseGlo solution purchased from Promega. The stopped reaction is incubated for 5 minutes and the remaining ATP is then detected via luminescence.

Molecules are shown by their SMILES. Read-outs that look alike come from different tables or passages of the source.

Sequence of PI3 kinase alpha (P42336 whole entry): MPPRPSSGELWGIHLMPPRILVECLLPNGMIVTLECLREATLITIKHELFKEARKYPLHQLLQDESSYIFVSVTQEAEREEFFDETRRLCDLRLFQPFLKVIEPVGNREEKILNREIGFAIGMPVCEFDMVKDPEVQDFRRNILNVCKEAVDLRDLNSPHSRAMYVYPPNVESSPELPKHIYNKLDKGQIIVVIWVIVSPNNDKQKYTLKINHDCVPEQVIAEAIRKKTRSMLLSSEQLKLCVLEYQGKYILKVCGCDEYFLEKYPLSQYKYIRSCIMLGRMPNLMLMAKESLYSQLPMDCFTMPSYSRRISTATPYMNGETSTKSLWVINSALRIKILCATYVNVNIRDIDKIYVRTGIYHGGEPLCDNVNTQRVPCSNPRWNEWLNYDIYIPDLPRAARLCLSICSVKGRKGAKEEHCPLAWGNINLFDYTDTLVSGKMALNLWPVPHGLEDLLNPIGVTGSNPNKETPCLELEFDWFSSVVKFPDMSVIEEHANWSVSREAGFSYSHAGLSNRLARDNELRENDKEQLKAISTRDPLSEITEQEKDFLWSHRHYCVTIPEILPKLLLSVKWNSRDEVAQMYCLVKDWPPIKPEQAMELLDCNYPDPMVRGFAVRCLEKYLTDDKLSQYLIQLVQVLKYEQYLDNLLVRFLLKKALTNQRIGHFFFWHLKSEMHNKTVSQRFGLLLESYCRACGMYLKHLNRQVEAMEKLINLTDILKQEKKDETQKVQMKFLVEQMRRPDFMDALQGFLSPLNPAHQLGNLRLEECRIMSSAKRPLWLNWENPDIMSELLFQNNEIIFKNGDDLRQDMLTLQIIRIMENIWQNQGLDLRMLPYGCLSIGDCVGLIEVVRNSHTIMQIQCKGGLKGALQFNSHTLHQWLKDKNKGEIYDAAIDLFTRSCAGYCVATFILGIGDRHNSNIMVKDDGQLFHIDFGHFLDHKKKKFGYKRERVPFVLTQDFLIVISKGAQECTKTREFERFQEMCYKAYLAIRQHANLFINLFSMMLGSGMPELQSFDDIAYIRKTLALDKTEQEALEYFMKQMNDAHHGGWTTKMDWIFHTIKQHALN
Sequence of PI3 kinase alpha (P27986 whole entry partner): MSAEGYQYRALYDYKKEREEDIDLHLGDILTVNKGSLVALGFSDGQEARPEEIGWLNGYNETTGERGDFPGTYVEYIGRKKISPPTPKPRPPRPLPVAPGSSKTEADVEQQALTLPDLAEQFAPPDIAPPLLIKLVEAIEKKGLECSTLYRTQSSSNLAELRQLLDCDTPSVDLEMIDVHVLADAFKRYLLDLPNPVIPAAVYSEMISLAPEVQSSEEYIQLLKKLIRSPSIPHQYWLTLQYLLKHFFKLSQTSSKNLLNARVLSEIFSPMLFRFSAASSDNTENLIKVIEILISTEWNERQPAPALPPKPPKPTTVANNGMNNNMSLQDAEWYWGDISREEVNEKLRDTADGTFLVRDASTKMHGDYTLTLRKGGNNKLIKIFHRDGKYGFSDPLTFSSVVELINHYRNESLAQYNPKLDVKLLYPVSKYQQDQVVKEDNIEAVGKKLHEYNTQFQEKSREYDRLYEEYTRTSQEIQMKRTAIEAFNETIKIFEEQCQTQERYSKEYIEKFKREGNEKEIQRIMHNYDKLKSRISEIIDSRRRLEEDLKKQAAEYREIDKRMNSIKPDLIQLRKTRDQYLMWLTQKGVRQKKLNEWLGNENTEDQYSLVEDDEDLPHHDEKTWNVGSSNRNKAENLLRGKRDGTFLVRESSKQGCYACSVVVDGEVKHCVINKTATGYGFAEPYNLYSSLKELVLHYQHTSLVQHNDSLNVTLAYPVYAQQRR

In the case of `CCN(CC)CCc1csc(Nc2cc(-c3cnc(N)cc3C(F)(F)F)nc(N3CCOCC3)n2)n1` [Compound 13], in assay [1], the EC50 (usually the concentration at which the effect is half-maximal) was < 10 µM.

For the compound `COCCNc1cc(-c2cnc(N)nc2)nc(N2CCOCC2)n1` [Compound 14], the EC50 in assay [1] was < 10 µM. Take `CC(C)(C)Nc1cc(-c2cnc(N)nc2)nc(N2CCOCC2)n1` [Compound 16]: the EC50 in assay [1] was < 10 µM.

On to `Nc1cc(C(F)(F)F)c(-c2cc(N3CCCCC3=O)nc(N3CCOCC3)n2)cn1` [Compound 17], for which, in assay [1], the EC50 is < 10 µM.

Consider `Nc1cc(C(F)(F)F)c(-c2cc(N3CCN(c4ccccc4)C3=O)nc(N3CCOCC3)n2)cn1` [Compound 18], for which the EC50 in assay [1] was < 10 µM. Same read-out and setting: in the case of `CC(=O)N1CCC(Oc2cc(-c3cnc(N)cc3C(F)(F)F)nc(N3CCOCC3)n2)CC1` [Compound 19] it was < 10 µM. On the same count and under the same terms, in the case of `CC(C)(C)OC(=O)N1CCC[C@H](Oc2cc(-c3cnc(N)cc3C(F)(F)F)nc(N3CCOCC3)n2)C1` [Compound 20] it was < 10 µM; in that of `CC(=O)N1CCC[C@@H](Oc2cc(-c3cnc(N)nc3N)nc(N3CCOCC3)n2)C1` [Compound 29], < 10 µM. Turning to `CCN(CC)CCc1csc(Nc2cc(-c3cnc(N)nc3C(F)(F)F)nc(N3CCOCC3)n2)n1` [Compound 55], the EC50 (in assay [1]; in the assay on pSer473 Akt) was < 1 µM throughout. Besides, the IC50 (as a rule, the concentration at which inhibition is half-maximal) on PI3 kinase alpha is < 1 µM.

Take `Cc1c(Nc2ncc(-c3ccccc3)s2)nc(N2CCOCC2)nc1-c1cnc(N)nc1` [Compound 61]: the EC50 (in assay [1]; with pSer473 Akt) was < 1 µM in each case. The IC50 against PI3 kinase alpha is < 1 µM. As for `CS(=O)(=O)N1CCC[C@H](Oc2cc(-c3cnc(N)nc3N)nc(N3CCOCC3)n2)C1` [Compound 89], the EC50 (in assay [1]; in the assay with pSer473 Akt) was < 1 µM in each case. Besides, the IC50 against PI3 kinase alpha was < 1 µM.

In the case of `CS(=O)(=O)c1cccc(-c2cc(-c3cnc(N)cc3C#N)nc(N3CCOCC3)n2)c1` [Compound 92], the EC50 in assay [1] is < 10 µM. Same read-out and setting: in the case of `CC(C)N1CCC(Oc2ccc(Nc3cc(-c4cnc(N)cc4C(F)(F)F)nc(N4CCOCC4)n3)cn2)C1` (centres unmarked) [Compound 93] it was < 10 µM; in that of `CS(=O)(=O)c1cccc(-c2cc(-c3cnc(N)cc3C(F)(F)F)nc(N3CCOCC3)n2)c1` [Compound 95], < 10 µM. Regarding `Nc1ncc(-c2cc(OC3CCN(C(=O)OC4CCCC4)CC3)nc(N3CCOCC3)n2)c(N)n1` [Compound 97], the EC50 in assay [1] was < 10 µM. Same read-out and setting: in the case of `CC(=O)N1CCC(Oc2cc(-c3cnc(N)nc3N)nc(N3CCOCC3)n2)CC1` [Compound 99] it was < 10 µM. Take `CC(=O)Nc1ncc(-c2cc(-c3cnc(N)cc3C(F)(F)F)nc(N3CCOCC3)n2)s1` [Compound 126]: the half-maximal effective concentration (EC50) in assay [1] is < 10 µM; in the assay with pSer473 Akt, < 1 µM. For the same compound, the IC50 at PI3 kinase alpha is < 1 µM.

Consider `CCN(CC)CCc1csc(Nc2cc(-c3cnc(N)nc3N)nc(N3CCOCC3)n2)n1` [Compound 133], for which the concentration for a half-maximal effect (EC50) (in assay [1]; in the assay with pSer473 Akt) was < 1 µM each time. In addition, the IC50 against PI3 kinase alpha was < 1 µM. Consider `Nc1ncc(-c2cc(OC3CCN(C(=O)OCc4ccccc4)CC3)nc(N3CCOCC3)n2)c(N)n1` [Compound 146], for which the EC50 (in assay [1]; in the assay with pSer473 Akt) was < 1 µM throughout. The IC50 against PI3 kinase alpha was < 1 µM.

For the compound `COc1ccc(Nc2cc(-c3cnc(N)nc3C(F)(F)F)nc(N3CCOCC3)n2)cn1` [Compound 151], the EC50 is < 10 µM in assay [1] and < 1 µM in the assay on pSer473 Akt. Further, the IC50 against PI3 kinase alpha is < 1 µM. In the case of `Nc1ccc(-c2cc(-c3cc4ccccc4nc3NCCN3CCCC3)nc(N3CCOCC3)n2)cn1` [Compound 182], the EC50 (in assay [1]; in the assay on pSer473 Akt) was < 1 µM throughout. In addition, the 50% inhibitory concentration (IC50) against PI3 kinase alpha was < 1 µM. Turning to `CN(C)CCOc1cncc(-c2cc(-c3cnc(N)cc3C(F)(F)F)nc(N3CCOCC3)n2)c1` [Compound 203], the EC50 is < 10 µM in assay [1] and < 1 µM with pSer473 Akt. In addition, the IC50 against PI3 kinase alpha was < 1 µM. As for `Nc1ncc(-c2cc(-c3cncc(O)c3)nc(N3CCOCC3)n2)cn1` [Compound 274], in assay [1], the EC50 is < 10 µM.

As to `COc1cncc(-c2cc(-c3ccc(N)nc3)nc(N3CCOCC3)n2)c1` [Compound 275], in assay [1], the EC50 is < 10 µM.

With `Nc1ncc(-c2cc(-c3ccc(F)nc3)nc(N3CCOCC3)n2)cn1` [Compound 278], the concentration for a half-maximal effect (EC50) in assay [1] was < 1 µM.

With `Nc1ncc(-c2cc(-c3cnc(N)nc3)nc(N3CCOCC3)n2)cn1` [Compound 279], in assay [1], the EC50 is < 1 µM. Consider `Nc1cc(C(F)(F)F)c(-c2cc(-c3cccnc3NCCO)nc(N3CCOCC3)n2)cn1` [Compound 285], for which the EC50 in assay [1] was < 10 µM. For the same compound, the half-maximal inhibitory concentration (IC50) at PI3 kinase alpha is < 1 µM. On to `Nc1cc(Cl)c(-c2cc(OC3CCOCC3)nc(N3CCOCC3)n2)cn1` [Compound 328], for which the EC50 in assay [1] was < 10 µM. In the case of `N#Cc1cccnc1Nc1cc(-c2ccc(N)nc2)nc(N2CCOCC2)n1` [Compound 364], the EC50 in assay [1] is < 25 µM. The IC50 against PI3 kinase alpha was < 10 µM. Consider `Cn1c(Nc2cc(-c3cnc(N)nc3)nc(N3CCOCC3)n2)nc2ccccc21` [Compound 394], for which the EC50 in assay [1] is < 10 µM. The IC50 on PI3 kinase alpha was < 1 µM.

Turning to `Nc1ncc(-c2cc(N[C@H]3CCC[C@@H]3OCc3ccccc3)nc(N3CCOCC3)n2)cn1` [Compound 396], the EC50 in assay [1] was < 10 µM. Moreover, the 50% inhibitory concentration (IC50) against PI3 kinase alpha is < 1 µM. `Nc1ncc(-c2cc(Nc3ccnc4c(C(F)(F)F)cccc34)nc(N3CCOCC3)n2)cn1` [Compound 408]: the concentration giving a half-maximal response (EC50) in assay [1] (Biological Method 4) is < 10 µM. Besides, at PI3 kinase alpha (Table 1, Biological Method 1), the IC50 is < 1 µM.

As to `CN(C)C(=O)c1cnc(N2CCOCC2)nc1-c1cnc(N)nc1` [Compound 422], the IC50 at PI3 kinase alpha (Table 1, Biological Method 1) is < 10 µM. Still for that read-out and setting: in the case of `Nc1ccc(-c2cc(NCc3ccncc3)nc(N3CCOCC3)n2)cn1` [Compound 443] it was < 10 µM; in that of `Nc1ccc(-c2cc(NCc3ccccn3)nc(N3CCOCC3)n2)cn1` [Compound 444], < 10 µM; in that of `Nc1ccc(-c2cc(NCc3cccnc3)nc(N3CCOCC3)n2)cn1` [Compound 445], < 10 µM.

On to `CS(=O)(=O)Nc1cc(N)ncc1-c1cc(Nc2cnc3ccccc3c2)nc(N2CCOCC2)n1` [Compound 492], for which, at PI3 kinase alpha (Table 1, Biological Method 1), the IC50 was < 10 µM. As to `COc1ccc2cc(Nc3cc(-c4ccc(N)nc4)nc(N4CCOCC4)n3)cnc2c1` [Compound 494], in assay [1] (Biological Method 4), the EC50 was < 10 µM. With `Nc1ccc(-c2cc(Nc3cnc4ccc(OC(F)(F)F)cc4c3)nc(N3CCOCC3)n2)cn1` [Compound 496], the IC50 against PI3 kinase alpha (Table 1, Biological Method 1) was < 10 µM. As to `Nc1ccc(-c2cc(-c3ccc(N4CCN(CCO)CC4)nc3)nc(N3CCOCC3)n2)cn1` [Compound 499], the EC50 in assay [1] (Biological Method 4) is < 10 µM. Besides, the IC50 against PI3 kinase alpha (Table 1, Biological Method 1) is < 1 µM. The like results for `CS(=O)(=O)Nc1ccc(-c2cc(-c3ccc(N)nc3)nc(N3CCOCC3)n2)cn1` [Compound 503] were, in that order, < 10 µM and < 1 µM. Regarding `N#Cc1cnc(Nc2cc(-c3cnc(N)nc3C(F)(F)F)nc(N3CCOCC3)n2)s1` [Compound 545], the IC50 on PI3 kinase alpha (Table 1, Biological Method 1) was < 1 µM. Same read-out and setting: in the case of `Cc1c(Nc2nc(-c3ccccc3)cs2)nc(N2CCOCC2)nc1-c1cnc(N)cc1C(F)(F)F` [Compound 555] it was < 10 µM.

The values above are taken from patent US8563549B2, “Pyrimidine derivatives used as PI-3 kinase inhibitors” (Novartis AG, priority 2006, dated 2013).
